Experimental data as given in ChEMBL document CHEMBL3124831, “Simplified 2-aminoquinoline-based scaffold for potent and selective neuronal nitric oxide synthase inhibition” (J Med Chem, 2014).

Assays:
[1] = tested on: Caco-2; conditions: human, caco-2, 2 h, 10 µM
Description: Apparent permeability across basolateral to apical side in human Caco2 cells assessed as compound recovery at 10 uM for 2 hrs by LC-MS/MS analysis

[2] = biological target: Nitric oxide synthase 1 (Rattus norvegicus, UniProt P29476)
Description: Inhibition of rat recombinant nNOS expressed in Escherichia coli using L-arginine as substrate assessed as NO production by hemoglobin capture assay

[3] = Selectivity ratio of Ki for bovine recombinant eNOS to Ki for rat recombinant nNOS
[4] = biological target: T1, Nitric oxide synthase 3 (Bos taurus, UniProt P29473)
T1 sequence (P29473 whole entry): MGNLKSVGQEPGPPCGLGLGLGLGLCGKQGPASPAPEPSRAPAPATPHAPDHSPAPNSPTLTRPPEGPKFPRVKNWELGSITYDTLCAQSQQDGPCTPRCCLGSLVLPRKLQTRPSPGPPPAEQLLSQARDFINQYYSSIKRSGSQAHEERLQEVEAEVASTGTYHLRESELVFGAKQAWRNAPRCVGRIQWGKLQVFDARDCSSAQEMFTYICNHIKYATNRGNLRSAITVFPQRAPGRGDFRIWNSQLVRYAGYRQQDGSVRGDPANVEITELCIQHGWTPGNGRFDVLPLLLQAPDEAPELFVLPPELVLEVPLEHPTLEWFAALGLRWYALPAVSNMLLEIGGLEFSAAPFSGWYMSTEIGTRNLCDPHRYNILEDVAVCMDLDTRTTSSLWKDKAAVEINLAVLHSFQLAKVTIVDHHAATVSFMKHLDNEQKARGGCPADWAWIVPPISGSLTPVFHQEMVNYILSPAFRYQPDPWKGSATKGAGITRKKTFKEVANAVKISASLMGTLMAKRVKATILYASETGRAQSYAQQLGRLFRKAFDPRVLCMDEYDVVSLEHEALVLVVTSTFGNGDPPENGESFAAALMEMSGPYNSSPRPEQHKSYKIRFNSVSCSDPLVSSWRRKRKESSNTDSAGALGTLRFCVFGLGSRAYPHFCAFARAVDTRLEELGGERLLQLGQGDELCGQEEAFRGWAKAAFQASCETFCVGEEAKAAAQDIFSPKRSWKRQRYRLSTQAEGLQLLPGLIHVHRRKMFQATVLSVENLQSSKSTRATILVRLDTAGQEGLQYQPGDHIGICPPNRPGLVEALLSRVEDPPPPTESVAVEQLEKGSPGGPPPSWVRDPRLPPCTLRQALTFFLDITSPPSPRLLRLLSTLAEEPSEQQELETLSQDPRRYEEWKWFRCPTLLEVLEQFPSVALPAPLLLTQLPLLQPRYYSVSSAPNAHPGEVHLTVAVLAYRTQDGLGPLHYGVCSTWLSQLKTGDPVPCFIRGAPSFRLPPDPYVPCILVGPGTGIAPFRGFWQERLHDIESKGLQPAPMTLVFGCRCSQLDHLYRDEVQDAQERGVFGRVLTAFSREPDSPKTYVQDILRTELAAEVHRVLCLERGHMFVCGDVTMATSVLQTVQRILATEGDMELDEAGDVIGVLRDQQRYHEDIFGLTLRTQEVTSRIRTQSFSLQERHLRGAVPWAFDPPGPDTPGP
Description: Inhibition of bovine recombinant eNOS expressed in Escherichia coli using L-arginine as substrate assessed as NO production by hemoglobin capture assay

[5] = biological target: T2, Nitric oxide synthase, inducible (Mus musculus, UniProt P29477)
T2 sequence (P29477 whole entry): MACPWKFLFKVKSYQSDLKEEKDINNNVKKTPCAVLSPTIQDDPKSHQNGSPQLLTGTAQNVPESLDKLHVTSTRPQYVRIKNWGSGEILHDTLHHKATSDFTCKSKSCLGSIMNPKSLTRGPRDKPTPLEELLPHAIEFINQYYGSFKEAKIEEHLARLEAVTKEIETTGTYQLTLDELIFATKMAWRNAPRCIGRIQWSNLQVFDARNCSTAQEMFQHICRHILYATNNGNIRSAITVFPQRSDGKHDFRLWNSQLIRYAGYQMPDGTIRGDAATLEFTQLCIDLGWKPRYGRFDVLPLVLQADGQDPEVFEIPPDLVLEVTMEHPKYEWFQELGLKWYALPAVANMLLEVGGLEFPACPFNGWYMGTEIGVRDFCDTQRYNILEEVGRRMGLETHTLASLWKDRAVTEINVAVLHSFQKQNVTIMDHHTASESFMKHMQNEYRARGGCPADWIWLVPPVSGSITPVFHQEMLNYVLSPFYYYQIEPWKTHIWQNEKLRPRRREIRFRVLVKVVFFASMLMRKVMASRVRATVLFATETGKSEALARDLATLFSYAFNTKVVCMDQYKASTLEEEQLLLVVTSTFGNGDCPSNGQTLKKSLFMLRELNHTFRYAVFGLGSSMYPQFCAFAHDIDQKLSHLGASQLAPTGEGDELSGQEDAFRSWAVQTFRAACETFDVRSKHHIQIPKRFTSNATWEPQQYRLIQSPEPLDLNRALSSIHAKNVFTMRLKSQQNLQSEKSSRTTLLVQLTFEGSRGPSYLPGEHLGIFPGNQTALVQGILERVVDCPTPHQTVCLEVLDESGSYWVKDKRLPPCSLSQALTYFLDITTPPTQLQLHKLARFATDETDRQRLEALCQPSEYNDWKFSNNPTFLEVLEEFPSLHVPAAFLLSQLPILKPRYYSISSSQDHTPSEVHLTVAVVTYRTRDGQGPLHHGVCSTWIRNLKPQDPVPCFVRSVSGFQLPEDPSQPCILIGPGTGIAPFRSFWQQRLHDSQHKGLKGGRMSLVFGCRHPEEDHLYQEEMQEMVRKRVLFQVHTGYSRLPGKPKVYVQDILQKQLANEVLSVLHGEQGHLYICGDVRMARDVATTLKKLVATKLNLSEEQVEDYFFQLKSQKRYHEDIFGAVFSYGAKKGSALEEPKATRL
Description: Inhibition of mouse recombinant iNOS expressed in Escherichia coli using L-arginine as substrate assessed as NO production by hemoglobin capture assay

[6] = Selectivity ratio of Ki for mouse recombinant iNOS to Ki for rat recombinant nNOS

Nitric oxide synthase 1, sequence (P29476 whole entry): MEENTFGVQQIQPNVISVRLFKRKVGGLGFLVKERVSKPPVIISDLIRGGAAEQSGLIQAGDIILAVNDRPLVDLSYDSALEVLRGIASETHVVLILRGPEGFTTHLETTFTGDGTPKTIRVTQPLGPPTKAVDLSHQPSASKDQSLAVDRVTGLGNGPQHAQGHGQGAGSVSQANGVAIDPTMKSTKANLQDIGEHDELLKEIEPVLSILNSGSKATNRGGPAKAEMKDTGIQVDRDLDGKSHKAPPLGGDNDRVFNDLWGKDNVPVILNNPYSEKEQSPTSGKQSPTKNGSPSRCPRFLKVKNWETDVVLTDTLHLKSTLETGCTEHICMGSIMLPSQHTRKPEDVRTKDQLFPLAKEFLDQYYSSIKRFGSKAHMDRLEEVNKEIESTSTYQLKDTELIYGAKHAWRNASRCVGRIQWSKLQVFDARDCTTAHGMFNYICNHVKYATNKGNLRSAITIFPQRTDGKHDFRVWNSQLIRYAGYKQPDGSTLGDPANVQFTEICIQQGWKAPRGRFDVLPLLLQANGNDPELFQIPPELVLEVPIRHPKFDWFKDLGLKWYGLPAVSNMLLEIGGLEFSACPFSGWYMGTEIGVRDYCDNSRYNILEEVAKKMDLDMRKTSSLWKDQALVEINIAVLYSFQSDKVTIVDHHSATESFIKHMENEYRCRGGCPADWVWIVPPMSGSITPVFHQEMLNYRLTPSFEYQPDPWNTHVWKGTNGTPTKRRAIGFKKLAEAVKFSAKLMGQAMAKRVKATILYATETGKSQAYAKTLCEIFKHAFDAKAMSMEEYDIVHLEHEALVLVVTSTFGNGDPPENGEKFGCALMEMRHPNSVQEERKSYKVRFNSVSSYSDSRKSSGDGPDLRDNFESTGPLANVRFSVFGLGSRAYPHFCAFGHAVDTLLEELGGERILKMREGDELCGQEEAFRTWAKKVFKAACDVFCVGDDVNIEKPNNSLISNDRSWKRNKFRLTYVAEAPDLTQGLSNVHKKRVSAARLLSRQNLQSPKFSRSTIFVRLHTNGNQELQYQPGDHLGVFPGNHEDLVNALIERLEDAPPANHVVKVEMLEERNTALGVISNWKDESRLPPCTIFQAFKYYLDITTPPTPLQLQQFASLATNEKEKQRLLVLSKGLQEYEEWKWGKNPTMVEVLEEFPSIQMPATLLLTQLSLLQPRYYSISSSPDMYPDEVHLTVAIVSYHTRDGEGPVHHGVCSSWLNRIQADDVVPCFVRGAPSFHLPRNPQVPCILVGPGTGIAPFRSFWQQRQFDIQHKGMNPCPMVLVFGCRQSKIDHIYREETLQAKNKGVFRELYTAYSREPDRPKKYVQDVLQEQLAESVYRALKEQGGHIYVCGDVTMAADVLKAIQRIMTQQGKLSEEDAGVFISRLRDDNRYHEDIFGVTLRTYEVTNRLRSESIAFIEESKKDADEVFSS

| SMILES | Ki [2] [µM] | Ratio Ki [3] | Ratio Ki [6] | further results |
| --- | --- | --- | --- | --- |
| Cl.Cl.Cl.N=C(Nc1ccc(CCNCc2cccc(Cl)c2)cc1)c1cccs1 |  |  |  | Drug recovery [1]: 78%; IC50 [2]: 0.035 µM |
| Nc1ccc2cc(CNCCc3cccc(F)c3)ccc2n1 | > 5.7 |  |  |  |
| Nc1ccc2cc(CCNCCc3cccc(F)c3)ccc2n1 | > 5.7 |  |  |  |
| Nc1ccc2ccc(CNCCCc3cccc(F)c3)cc2n1 | 0.06 | 62 | 538 | Ki [4]: 3.69 µM; Ki [5]: 32.3 µM |
| Nc1ccc2cc(CCNCCCc3cccc(F)c3)ccc2n1 | 4.37 |  |  |  |
| Nc1ccc2ccc(CCNCCc3ccc(F)cc3)cc2n1 |  | 37 | 280 |  |
| Nc1ccc2cc(CCNCc3cccc(F)c3)ccc2n1 | > 5.7 |  |  |  |
| Nc1ccc2ccc(CNCCc3cccc(F)c3)cc2n1 |  | 6.2 | 124 |  |
| Nc1ccc2ccc(CCNCc3cccc(F)c3)cc2n1 |  | 30 | 97 |  |
| Nc1ccc2ccc(CCNCCc3ccc(Cl)cc3)cc2n1 |  | 47 | 91 |  |
